Laboratory results taken from patent publication US20030138816A1, “Methods and kits for diagnosing the occurrence or the phase of minimal change nephrotic syndrome (MCNS) in a human” (INSTITUT NATIONAL DE LA SANTE ET DE LA RECHERCHE MEDICALE, priority 2001, published 2003).
Residues, ends and D or L forms follow the SMILES beside them. *: point of attachment. Cbz = O=C(OCc1ccccc1)*

Assays:
PBMC from relapse = experiment: Incubation of PBMCs with the proteasome inhibitor MG132, c-maf protein in protein extracts; type: cell-based, human; settings: co culture of PBMC from MCNS relapse with MG132, 10 μM, overnight
Method: 5) Quantification of IL4 mRNA by quantitative RT-PCR. Quantitative PCR was performed using the Light Cycler (Roche Molecular Biochemical). The samples (2 μl of the RT reaction, corresponding to 20 ng of total RNA) were amplified in a 20 μl reaction mixture containing […] each primer, and 1×mix LightCycler-DNA master SYBR Green buffer (Roche Molecular Biochemical). Carry-over was prevented by using dUTP instead of dTTP, and heat-labile Uracil DNA glyco-sylase (UDG). A standard curve was made using dilution of the RNA prepared from pUc9-IL4 plasmid. The PCR reaction was started by a denaturation at 95° C. for 2 min followed by 40 three step cycles (95° C.: 1 sec, 60° C.: 10 sec, and 72° C.: 24 sec). The relative value for each sample was calculated using the LightCycler analysis software. 6) Electromobility shift assays (EMSA), immunoprecipitations and Western blottings: Cytosolic and nuclear protein preparations as well as EMSA were performed as previously described (34). […] The subunit composition of DNA-protein complexes containing c-Maf was determined by preincubation of nuclear extracts with 1 μg of polyclonal antibodies raised against c-Maf (sc-7866), c-Fos (sc-7202), and c-Jun (sc-1694), (Santa Cruz, Biotechnology), before the addition of the probe. […] Band shifts were quantified using the ImageQuant V1.11 analysis software. […]

[1] = test system: patient with Minimal Change Nephrotic Syndrome; experiment: Prednisone treatment of the patient selected for the subtractive library (onset of nephrotic syndrome, MCNS); type: in vivo, human; settings: one patient, prednisone 1 mg/kg/day for four weeks, then tapered

SMILES | effect on L/c-maf protein (long form) (PBMC from relapse) | effect on S/c-maf protein (short form) (PBMC from relapse) | remission of nephrotic syndrome [1]
CC(C)C[C@@H](C=O)NC(=O)[C@H](CC(C)C)NC(=O)[C@H](CC(C)C)NC(=O)OCc1ccccc1 [MG132, carbobenzoxyl-leucinyl-leucinyl-leucinal-H] (Cbz-Leu-Leu-Leu-aldehyde) | no evident change | induces a sequestration of S/c-maf protein | –
C[C@]12C=CC(=O)C=C1CC[C@@H]1[C@@H]2C(=O)C[C@@]2(C)[C@H]1CC[C@]2(O)C(=O)CO [prednisone] | – | – | Complete remission was obtained within ten days
